Test results from US20250034202A1 (The General Hospital Corporation, priority 2021, published 2025).
Read-outs that look alike come from different tables or passages of the source.

Columns and labels:
BRD4 [1] = biological target: T1, BRD4 (Homo sapiens, UniProt O60885); experiment: Rescue of CS-JQ1-induced BRD4 degradation by co-treatment; assay type: cell-based; settings: CS-JQ1 250 nM; BTZ, MLN7243, MLN4924 1 μM, JQ1 10 μM; MCF7 and MDA-MB-231 cells
MDA = experiment: Cell viability, breast cancer cells MDA; assay type: cell-based
MCF-7 = experiment: Cell viability, breast cancer cells MCF-7; assay type: cell-based
MDA-BR = experiment: Cell viability, breast cancer cells MDA-BR; assay type: cell-based
BT474 = experiment: Cell viability, breast cancer cells BT474; assay type: cell-based
SJGBM2 = experiment: Cell viability, pediatric glioma SJGBM2; assay type: cell-based
DIPG XIII = experiment: Cell viability, pediatric glioma DIPG XIII; assay type: cell-based
DIPG VI = experiment: Cell viability, pediatric glioma DIPG VI; assay type: cell-based
DIPG IV = experiment: Cell viability, pediatric glioma DIPG IV; assay type: cell-based
MES83 = experiment: Cell viability, adult glioma MES83; assay type: cell-based
GBM8 = experiment: Cell viability, adult glioma GBM8; assay type: cell-based
CT2A (mice) = experiment: Cell viability, adult glioma CT2A (mice); assay type: cell-based
MES236 = experiment: Cell viability, adult glioma MES236; assay type: cell-based
MGG29 = experiment: Cell viability, adult glioma MGG29; assay type: cell-based
PN84 = experiment: Cell viability, adult glioma PN84; assay type: cell-based
U87 = experiment: Cell viability, adult glioma U87; assay type: cell-based
MGG23 = experiment: Cell viability, adult glioma MGG23; assay type: cell-based
MGG6 = experiment: Cell viability, adult glioma MGG6; assay type: cell-based
BRD4 [2] = experiment: CDDO blockade of CS-JQ1-induced BRD4 degradation; assay type: cell-based; settings: MDA and MES83 cells; CDDO 100 nM or 5 μm, celastrol-JQ1 100 nM; CHX 3 μg/ml 1 h, 8 hour treatment
BRD4 [3] = biological target: T1, BRD4; experiment: TR-FRET quantification of BRD4 levels after 5 h treatment, MCF7 cells; assay type: cell-based; settings: BRD4 degradation
Description: (§1) Mammalian cell culture: MCF7 cells (ATCC) were propagated in RPMI-1640 medium supplemented with 10% FBS, 1% pen-strep, and 1% L-glutamine at 37° C. and 5% CO2. MDA-MB-231 cells (ATCC) were propagated in DMEM medium supplemented with 10% FBS, and 1% pen-strep at 37° C. and 5% CO2.
(§2) TR-FRET measurements: unless otherwise noted, experiments were performed in white, 384-well microtiter plates (Corning 3572) in 30 μL assay volume. […] The 490/10 and 520/10 emission channels were acquired with a 50% mirror and a dichroic 510 mirror, respectively, using independently optimized detector gain settings unless specified otherwise. The TR-FRET ratio was taken as the 520/490 nm intensity ratio on a per-well basis.
(§3) Next, MCF7 and MDA-MB-231 cells were treated for 5 h with varying concentrations of CS-JQ1, followed by BRD4 quantification. […] Western blot analysis on the same samples yielded results that were again in excellent agreement (FIG. 1F-G).

BRD4 [4] = biological target: T1, BRD4; experiment: TR-FRET quantification of BRD4 levels after 5 h treatment, MDA-MB-231 cells; assay type: cell-based; settings: BRD4 degradation
Description: as §1, §2, §3

BRD4 [5] = experiment: TR-FRET ligand displacement, target engagement with BRD4; assay type: binding; settings: recombinant BRD4(BD1), BRD4(BD2), endogenous BRD4 in MCF7 cell extracts
Keap1 Kelch domain = Keap1 Kelch domain (Homo sapiens, UniProt Q14145); experiment: TR-FRET assay with full-length Keap1, Kelch domain; assay type: binding
Chain of Keap1 Kelch domain (Q14145 whole entry, the tested form may be a part): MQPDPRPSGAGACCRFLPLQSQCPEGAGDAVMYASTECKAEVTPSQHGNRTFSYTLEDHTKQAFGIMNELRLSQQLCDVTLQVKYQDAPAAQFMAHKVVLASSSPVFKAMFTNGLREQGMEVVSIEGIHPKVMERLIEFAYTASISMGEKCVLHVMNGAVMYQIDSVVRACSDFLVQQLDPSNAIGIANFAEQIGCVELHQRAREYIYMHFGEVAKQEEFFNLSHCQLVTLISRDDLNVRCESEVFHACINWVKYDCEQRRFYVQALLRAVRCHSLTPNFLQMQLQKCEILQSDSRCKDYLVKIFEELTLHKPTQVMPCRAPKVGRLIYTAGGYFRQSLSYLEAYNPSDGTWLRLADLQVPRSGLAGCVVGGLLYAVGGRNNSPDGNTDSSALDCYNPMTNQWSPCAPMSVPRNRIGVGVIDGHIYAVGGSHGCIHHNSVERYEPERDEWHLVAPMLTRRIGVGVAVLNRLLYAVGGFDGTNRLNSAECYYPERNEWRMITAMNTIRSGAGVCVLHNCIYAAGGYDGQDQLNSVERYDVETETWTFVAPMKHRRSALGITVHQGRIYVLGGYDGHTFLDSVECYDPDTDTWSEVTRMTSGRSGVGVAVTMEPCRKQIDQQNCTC
Description: (§4) FIG. 5 contains a table showing apparent equilibrium dissociation constants for CS and CS-JQ1 toward Keap1-Kelch and Keap1-BTB domains.
(§5) Chemical synthesis: FITC-Ahx-[…]-CONH2 (FITC-KL9) peptide tracer was custom synthesized by Genscript (Piscataway, New Jersey). CDDO-FITC fluorescent tracer was prepared as previously described. Column purifications were performed on a Biotage Isolera 4 Purification System equipped with a 200-400 nm diode array detector. For normal phase flash purifications, Sorbtech Purity Flash Cartridges were used (CFC-52300-012-18 and CFC-52500-025-12). For reverse phase flash purifications, Biotage Sfar Bio C18 Duo 300 A, 20 μm cartridges were used (FSBD-0411-001). […] LC/MS data analysis was performed using Waters Masslynx V4.1 SCN 846 software. Proton and carbon nuclear magnetic resonance (1H and 13C NMR spectra) were recorded on a Bruker Avance III 400 spectrometer using Topspin 3.2 software and data were analyzed using MestreNova (version 12.0.1-20560, Mestrelab Research). Chemical shifts for protons are reported in parts per million (ppm) and are referenced to residual solvent peaks. Data is reported as follows: chemical shift, multiplicity (s=singlet, br s, =broad singlet, d=doublet, t=triplet, q=quartet, p=pentet, m=multiplet), proton coupling constants (J, Hz), and integration. […]

Keap1 BTB domain = Keap1 BTB domain (Homo sapiens, UniProt Q14145); experiment: TR-FRET ligand displacement assay with full-length Keap1, BTB domain (CDDO-based tracer); assay type: binding
Chain of Keap1 BTB domain (Q14145 whole entry, the tested form may be a part): as above
Description: as §4
as §5, with “Research).” for “Research). Chemical shifts for protons are reported in parts per million (ppm) and are referenced to residual solvent peaks. Data is reported as follows: chemical shift, multiplicity (s=singlet, br s, =broad singlet, d=doublet, t=triplet, q=quartet, p=pentet, m=multiplet), proton coupling constants (J, Hz), and integration.”
CS was discovered and validated as a promising new ligand for the redirection of E3 ligase activity. […] Since the binding affinity of CS and CS-JQ1 for BTB was determined in a ligand displacement assay using a CDDO-based tracer, it was reasonable to assume that CDDO-Me would efficiently displace CS-JQ1. […]

[6] = tested on: full-length Keap1 and BRD4(BD1) and BRD4(BD2); experiment: CS-JQ1-induced ternary complex formation; assay type: binding; settings: wildtype full-length Keap1, isolated BRD4 (BD1) and BRD4 (BD2)
DIPG 50 = experiment: Cell viability, pediatric glioma DIPG 50; assay type: cell-based
PHC (mice) = experiment: Cell viability, pediatric glioma PHC (mice); assay type: cell-based; settings: Mus musculus
PKC (mice) = experiment: Cell viability, pediatric glioma PKC (mice); assay type: cell-based; settings: Mus musculus
XFM (mice) = experiment: Cell viability, pediatric glioma XFM (mice); assay type: cell-based; settings: Mus musculus
M005 (mice) = experiment: Cell viability, adult glioma M005 (mice); assay type: cell-based; settings: Mus musculus

CC(C)C[C@H](NC(=O)[C@H](Cc1ccccc1)NC(=O)c1cnccn1)B(O)O [BTZ]
Rescue of CS-JQ1-mediated BRD4 degradation by co-treatment (BRD4 [1]): substantially rescued

Cc1sc2c(c1C)C(c1ccc(Cl)cc1)=NC(CC(=O)NCCCOCCOCCOCCCNC(=O)[C@]13CCC(C)(C)C[C@H]1[C@H]1C(=O)C=C4[C@@]5(C)C=C(C#N)C(=O)C(C)(C)[C@@H]5CC[C@@]4(C)[C@]1(C)CC3)c1nnc(C)n1-2 (stereo partly shown) [CDDO-JQ1]
IC50 (MDA): 748 nM
IC50 (MCF-7): 6600 nM
IC50 (MDA-BR): > 10000 nM
IC50 (BT474): 1680 nM
IC50 (SJGBM2): 635 nM
IC50 (DIPG XIII): 694 nM
IC50 (DIPG VI): 277 nM
IC50 (DIPG IV): 894 nM
IC50 (MES83): 1000 nM
IC50 (GBM8): 124 nM
IC50 (CT2A (mice)): 747 nM
IC50 (MES236): 404 nM
IC50 (MGG29): 360 nM
IC50 (PN84): 139 nM
IC50 (U87): 746 nM
IC50 (MGG23): 1850 nM
IC50 (MGG6): 357 nM

CC1(C)CC[C@]2(C(=O)O)CC[C@]3(C)[C@H](C(=O)C=C4[C@@]5(C)C=C(C#N)C(=O)C(C)(C)[C@@H]5CC[C@]43C)[C@@H]2C1 [CDDO]
Blockade of CS-JQ1-induced BRD4 degradation by CDDO pre-treatment (BRD4 [2]): blocks partially
IC50 (MDA): 1220 nM
IC50 (MCF-7): > 10000 nM
IC50 (MDA-BR): > 10000 nM
IC50 (BT474): 4840 nM
IC50 (SJGBM2): 2370 nM
IC50 (DIPG XIII): 1410 nM
IC50 (DIPG VI): 1330 nM
IC50 (DIPG IV): 1360 nM
IC50 (MES83): 1350 nM
IC50 (GBM8): 578 nM
IC50 (CT2A (mice)): 2120 nM
IC50 (MES236): 1280 nM
IC50 (MGG29): 828 nM
IC50 (PN84): 278 nM
IC50 (U87): 3700 nM
IC50 (MGG23): 2570 nM
IC50 (MGG6): 964 nM

CC1=C(O)C(=O)C=C2C1=CC=C1[C@@]2(C)CC[C@@]2(C)[C@@H]3C[C@](C)(C(=O)NCCCOCCOCCOCCCNC(=O)CC4N=C(c5ccc(Cl)cc5)c5c(sc(C)c5C)-n5c(C)nnc54)CC[C@]3(C)CC[C@]12C (stereo partly drawn) [CS-JQ1, (2R,4aS,6aS,12bR,14aS,14bR)—N-(1-(4-(4-chlorophenyl)-2,3,9-trimethyl-6H-thieno[3,2-f][1,2,4]triazolo[4,3-a][1,4]diazepin-6-yl)-2-oxo-7,10,13-trioxa-3-azahexadecan-16-yl)-10-hydroxy-2,4a,6a,9,12b,14a-hexamethyl-11-oxo-1,2,3,4,4a,5,6,6a,11,12b,13,14,14a,14b-tetradecahydropicene-2-carboxamide]
Emax (BRD4 [3]): 21%
Emax,5h,MCF7 (BRD4 [3]): 21%
DC50 (BRD4 [3]; n=2): 29 ± 14 nM
Emax (BRD4 [4]): 12%
Emax,5h,MDA-MB-231 (BRD4 [4]): 12%
DC50 (BRD4 [4]; n=2): 16 ± 2 nM
Binding to BRD4 (BRD4 [5]): did not impair binding to BRD4
Binding to Keap1 Kelch domain (Keap1 Kelch domain): lost the ability to bind the Keap1 Kelch domain
Affinity for Keap1 BTB domain (Keap1 BTB domain): slightly improved affinity for the BTB domain
Ternary complex formation between Keap1 and BRD4 domains [6]: able to induce ternary complex formation
IC50 (MDA): 119 nM
IC50 (MCF-7; Homo sapiens, MCF7): 409 nM
IC50 (MDA-BR): 213 nM
IC50 (BT474; Homo sapiens, BT-474): 60.9 nM
IC50 (SJGBM2): 263 nM
IC50 (DIPG XIII): 39 nM
IC50 (DIPG XIII; listed as Celastrol-JQ1): 46.5 nM
IC50 (DIPG VI): 83.1 nM
IC50 (DIPG IV): 819 nM
IC50 (DIPG 50): 298 nM
IC50 (PHC (mice)): 8.48 nM
IC50 (PKC (mice)): 103 nM
IC50 (XFM (mice)): 38.2 nM
IC50 (MES83): 328 nM
IC50 (GBM8): 63.1 nM
IC50 (CT2A (mice); Mus musculus): 142 nM
IC50 (MES236): 190 nM
IC50 (MGG29): 90.4 nM
IC50 (PN84): 79.7 nM
IC50 (PN84; listed as Celastrol-JQ1): 125 nM
IC50 (U87; Homo sapiens, U-87 MG): 266 nM
IC50 (MGG23): 447 nM
IC50 (MGG6): 99.3 nM
IC50 (M005 (mice)): 23.6 nM
